Assay results taken from PubChem BioAssay AID248 (DTP/NCI, 2004).
“And” between values parts separate entries of the source, which are not always exact repeats. Identical values can stand only once. Inconclusive results and toxic doses are left out. Cut-off read from the data, not from the text of the source: active = T/C of 150% or more; inactive = T/C below 125%. Square brackets hold non-standard residues; d marks the D form. Peptide text beside a SMILES is read from it. * marks the point of attachment. ξ: configuration not given here. Octanoyl = CCCCCCCC(=O)*; OBn = c1ccc(CO*)cc1; ξP = O=C(O)C1CCCN1

System: L1210 leukemia ip in BDF1 mice, survival T/C
Assay: NCI In Vivo Anticancer Drug Screen. Data for tumor model L1210 Leukemia (intraperitoneal) in B6D2F1 (BDF1) mice
Settings: higher = longer survival
Method in brief: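 Value reflects the ratio of survival in compound-treated mice to survival in vehicle-treated controls, with both groups carrying the same transplanted tumor.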

[1] = endpoint: mean survival time, dose: 100.0 mg/kg/injection, schedule: Q01DX009 (sc), vehicle: olive oil, sesame oil, peanut oil
[2] = endpoint: mean survival time, dose: 100.0 mg/kg/injection, schedule: Q04DX003 (sc), vehicle: olive oil, sesame oil, peanut oil
[3] = endpoint: mean survival time, dose: 200.0 mg/kg/injection, schedule: Q01DX009 (sc), vehicle: olive oil, sesame oil, peanut oil
[4] = endpoint: mean survival time, dose: 200.0 mg/kg/injection, schedule: Q04DX003 (sc), vehicle: olive oil, sesame oil, peanut oil
[5] = endpoint: mean survival time, dose: 400.0 mg/kg/injection, schedule: Q04DX003 (sc), vehicle: olive oil, sesame oil, peanut oil
[6] = endpoint: mean survival time, dose: 100.0 mg/kg/injection, schedule: Q04DX003 (ip), vehicle: saline with Tween-80
[7] = endpoint: mean survival time, dose: 200.0 mg/kg/injection, schedule: Q04DX003 (ip), vehicle: saline with Tween-80
[8] = endpoint: mean survival time, dose: 400.0 mg/kg/injection, schedule: Q04DX003 (ip), vehicle: saline with Tween-80
[9] = endpoint: mean survival time, dose: 100.0 mg/kg/injection, schedule: Q01DX009 (ip), vehicle: saline with Tween-80
[10] = endpoint: mean survival time, dose: 100.0 mg/kg/injection, schedule: Q01DX001 (ip), vehicle: carboxymethylcellulose (CMC)
[11] = endpoint: mean survival time, dose: 200.0 mg/kg/injection, schedule: Q01DX001 (ip), vehicle: carboxymethylcellulose (CMC)
[12] = endpoint: mean survival time, dose: 100.0 mg/kg/injection, schedule: Q01DX001 (ip), vehicle: Klucel (hydroxypropylcellulose) (HPC)
[13] = endpoint: mean survival time, dose: 100.0 mg/kg/injection, schedule: Q01DX009 (ip), vehicle: Klucel (hydroxypropylcellulose) (HPC)
[14] = endpoint: mean survival time, dose: 100.0 mg/kg/injection, schedule: Q04DX002 (ip), vehicle: Klucel (hydroxypropylcellulose) (HPC)
[15] = endpoint: mean survival time, dose: 200.0 mg/kg/injection, schedule: Q01DX001 (ip), vehicle: Klucel (hydroxypropylcellulose) (HPC)
[16] = endpoint: mean survival time, dose: 200.0 mg/kg/injection, schedule: Q01DX009 (ip), vehicle: Klucel (hydroxypropylcellulose) (HPC)
[17] = endpoint: mean survival time, dose: 200.0 mg/kg/injection, schedule: Q04DX002 (ip), vehicle: Klucel (hydroxypropylcellulose) (HPC)
[18] = endpoint: mean survival time, dose: 400.0 mg/kg/injection, schedule: Q01DX001 (ip), vehicle: Klucel (hydroxypropylcellulose) (HPC)
[19] = endpoint: mean survival time, dose: 400.0 mg/kg/injection, schedule: Q04DX002 (ip), vehicle: Klucel (hydroxypropylcellulose) (HPC)
[20] = endpoint: mean survival time, dose: 400.0 mg/kg/injection, schedule: Q01DX009 (ip), vehicle: Klucel (hydroxypropylcellulose) (HPC)

Measured: T/C

CCOC(=O)c1ccc(N=NN(C)C2CCCCC2)cc1
inactive: endpoint: mean survival time, dose: 100.0 mg/kg/injection, schedule: Q01DX001 (sc), vehicle: olive oil, sesame oil, peanut oil 102 % of control | [1] 104 % of control | [2] 102 % of control | endpoint: mean survival time, dose: 200.0 mg/kg/injection, schedule: Q01DX001 (sc), vehicle: olive oil, sesame oil, peanut oil 102 % of control | [3] 116 % of control | [4] 103 % of control | endpoint: mean survival time, dose: 400.0 mg/kg/injection, schedule: Q01DX001 (sc), vehicle: olive oil, sesame oil, peanut oil 98 % of control | endpoint: mean survival time, dose: 400.0 mg/kg/injection, schedule: Q01DX009 (sc), vehicle: olive oil, sesame oil, peanut oil 104 % of control | [5] 100 % of control

c1ccc(-c2ccc(-c3c(-c4ccccc4)ccc(-c4ccccc4)c3-c3ccccc3)cc2)cc1
inactive: endpoint: mean survival time, dose: 100.0 mg/kg/injection, schedule: Q01DX001 (ip), vehicle: saline with Tween-80 104 % of control | endpoint: mean survival time, dose: 200.0 mg/kg/injection, schedule: Q01DX001 (ip), vehicle: saline with Tween-80 104 % of control | endpoint: mean survival time, dose: 400.0 mg/kg/injection, schedule: Q01DX001 (ip), vehicle: saline with Tween-80 112 % of control

CC1(C)N=C(N)N=C(N)N1c1ccc(OCCNS(=O)(=O)c2cccc(S(=O)(=O)F)c2)c(Cl)c1
inactive: endpoint: median survival time, dose: 100.0 mg/kg/injection, schedule: Q01DX001 (ip), vehicle: Klucel (hydroxypropylcellulose) (HPC) 105 % of control | endpoint: median survival time, dose: 200.0 mg/kg/injection, schedule: Q01DX001 (ip), vehicle: Klucel (hydroxypropylcellulose) (HPC) 100 % of control | endpoint: median survival time, dose: 400.0 mg/kg/injection, schedule: Q01DX001 (ip), vehicle: Klucel (hydroxypropylcellulose) (HPC) 105 % of control

C/C=C\C=C\C(=O)OC
inactive: [6] 99 % of control | [7] 89 % of control | [8] 92 % of control

NC(=O)N=Nc1ccccc1
inactive: endpoint: mean survival time, dose: 100.0 mg/kg/injection, schedule: Q01DX001 (ip), vehicle: other 105 % of control | endpoint: mean survival time, dose: 200.0 mg/kg/injection, schedule: Q01DX001 (ip), vehicle: other 91 % of control | endpoint: mean survival time, dose: 400.0 mg/kg/injection, schedule: Q01DX001 (ip), vehicle: other 98 % of control

Clc1ccc(/C=C2\c3ccccc3-c3nc4ccccc4nc32)cc1
inactive: endpoint: mean survival time, dose: 75.0 mg/kg/injection, schedule: Q04DX003 (ip), vehicle: saline 91 % of control | endpoint: mean survival time, dose: 150.0 mg/kg/injection, schedule: Q04DX003 (ip), vehicle: saline 88 % of control

COc1ccc(O)c(C=O)c1
inactive: [9] 108 % of control

COC(OC)/C(C)=N/NC(N)=O
inactive: [10] 88 % of control | [11] 116 % of control | endpoint: mean survival time, dose: 400.0 mg/kg/injection, schedule: Q01DX001 (ip), vehicle: carboxymethylcellulose (CMC) 108 % of control

OCCNC(=S)SCc1ccccc1
inactive: [1] 102 % of control | [2] 96 % of control | [3] 120 % of control | [4] 98 % of control | [5] 105 % of control

O=C(Nc1ncccc1[N+](=O)[O-])C(Cl)(Cl)Cl
inactive: [12] 101 % of control | [13] 115 % of control | [14] 100 % of control and 88 % of control | endpoint: mean survival time, dose: 100.0 mg/kg/injection, schedule: Q04DX003 (ip), vehicle: Klucel (hydroxypropylcellulose) (HPC) 95 % of control | [15] 100 % of control | [16] 108 % of control | [17] 103 % of control and 91 % of control | endpoint: mean survival time, dose: 200.0 mg/kg/injection, schedule: Q04DX003 (ip), vehicle: Klucel (hydroxypropylcellulose) (HPC) 106 % of control | [18] 101 % of control | [19] 100 % of control and 103 % of control | endpoint: mean survival time, dose: 400.0 mg/kg/injection, schedule: Q04DX003 (ip), vehicle: Klucel (hydroxypropylcellulose) (HPC) 95 % of control

CCN(CC)CCCOC(=O)c1ccccc1
inactive: endpoint: mean survival time, dose: 50.0 mg/kg/injection, schedule: Q01DX009 (ip), vehicle: saline 96 % of control | endpoint: mean survival time, dose: 100.0 mg/kg/injection, schedule: Q01DX009 (ip), vehicle: saline 100 % of control | endpoint: mean survival time, dose: 200.0 mg/kg/injection, schedule: Q01DX009 (ip), vehicle: saline 100 % of control

Cc1cc(=O)c2c(C)cccc2[nH]1
inactive: endpoint: mean survival time, dose: 6.25 mg/kg/injection, schedule: Q01DX009 (ip), vehicle: saline sonified 101 % of control | endpoint: mean survival time, dose: 6.25 mg/kg/injection, schedule: Q04DX003 (ip), vehicle: saline with Tween-80 90 % of control | endpoint: mean survival time, dose: 12.5 mg/kg/injection, schedule: Q01DX009 (ip), vehicle: saline sonified 99 % of control | endpoint: mean survival time, dose: 25.0 mg/kg/injection, schedule: Q01DX009 (ip), vehicle: saline sonified 99 % of control | endpoint: mean survival time, dose: 25.0 mg/kg/injection, schedule: Q04DX003 (ip), vehicle: saline with Tween-80 92 % of control

CC(=O)Nc1ccc(/C=N/Nc2ccccc2)cc1
inactive: [13] 101 % of control | [16] 103 % of control | [20] 101 % of control

O=c1[nH]c(C(F)(F)F)c(CCc2ccccc2)c(=O)[nH]1
inactive: [12] 103 % of control | [15] 110 % of control | [18] 107 % of control

O=P(O)(O)c1ccccc1
inactive: endpoint: mean survival time, dose: 50.0 mg/kg/injection, schedule: Q01DX001 (ip), vehicle: carboxymethylcellulose (CMC) 96 % of control | [10] 107 % of control | [11] 98 % of control

COC(=O)N1C(c2ccc(OC)cc2)CS1(=O)=O (stereo unspecified)
inactive: endpoint: mean survival time, dose: 75.0 mg/kg/injection, schedule: Q04DX003 (ip), vehicle: Klucel (hydroxypropylcellulose) (HPC) 101 % of control | [12] 97 % of control | endpoint: mean survival time, dose: 150.0 mg/kg/injection, schedule: Q04DX003 (ip), vehicle: Klucel (hydroxypropylcellulose) (HPC) 98 % of control | [15] 102 % of control | endpoint: mean survival time, dose: 300.0 mg/kg/injection, schedule: Q04DX003 (ip), vehicle: Klucel (hydroxypropylcellulose) (HPC) 116 % of control | [18] 97 % of control

CCC[CH2][Tl]([Br])[CH2]CCC
inactive: endpoint: mean survival time, dose: 100.0 mg/kg/injection, schedule: Q04DX002 (ip), vehicle: saline with Tween-80 98 % of control | endpoint: mean survival time, dose: 200.0 mg/kg/injection, schedule: Q04DX002 (ip), vehicle: saline with Tween-80 103 % of control | endpoint: mean survival time, dose: 400.0 mg/kg/injection, schedule: Q04DX002 (ip), vehicle: saline with Tween-80 106 % of control

CCCCCCCC(=O)N1CCCC1C(=O)NCC(=O)NCC(=O)OCc1ccccc1 (stereo not drawn) (Octanoyl-[ξP]-Gly-Gly-OBn)
inactive: [14] 94 % of control | [17] 86 % of control | [19] 105 % of control

C=CC1CCN(CCn2cnc3c(N)ncnc32)CC1
inactive: [6] 97 % of control | [7] 103 % of control | [8] 97 % of control

Cc1ccc([N+](=O)[O-])cc1NC(=O)NCc1cccnc1
inactive: [13] 95 % of control | [16] 87 % of control | [20] 92 % of control

NP1(N)=NP(N)(N)=NP(N)(N)=N1
inactive: endpoint: mean survival time, dose: 100.0 mg/kg/injection, schedule: Q04DX002 (ip), vehicle: saline 90 % of control | endpoint: mean survival time, dose: 200.0 mg/kg/injection, schedule: Q04DX002 (ip), vehicle: saline 93 % of control | endpoint: mean survival time, dose: 400.0 mg/kg/injection, schedule: Q04DX002 (ip), vehicle: saline 97 % of control

COC1C=CC23c4cc5c(cc4C(O)OC2CN(C)C3C1)OCO5 (stereo unspecified)
inactive: endpoint: mean survival time, dose: 100.0 mg/kg/injection, schedule: Q01DX001 (ip), vehicle: saline 106 % of control

Cc1ccc(S(=O)(=O)N(C)C)cc1N
inactive: endpoint: mean survival time, dose: 50.0 mg/kg/injection, schedule: Q01DX009 (ip), vehicle: saline with Tween-80 105 % of control | [9] 98 % of control | [6] 107 % of control | endpoint: mean survival time, dose: 200.0 mg/kg/injection, schedule: Q01DX009 (ip), vehicle: saline with Tween-80 96 % of control | [7] 97 % of control | [8] 102 % of control

CC(C)(C)NC(=O)NCc1ccc(Cl)cc1
inactive: [14] 100 % of control | [17] 88 % of control | [19] 111 % of control
